Reference: article PMC10997755, “Discovery of a small-molecule inhibitor that traps Polθ on DNA and synergizes with PARP inhibitors” (Nature Communications, 2024)
Values joined by “and” are separate entries in the source; they are usually repeats but may differ in a detail not shown here. Equal entries are not always repeated.

Tests used:
Pol Eta = biological target: T1, Pol Eta (Homo sapiens, UniProt Q9Y253); assay: Primer extension by recombinant Pols (selectivity); assay type: biochemical
T1 sequence (Q9Y253 1-713): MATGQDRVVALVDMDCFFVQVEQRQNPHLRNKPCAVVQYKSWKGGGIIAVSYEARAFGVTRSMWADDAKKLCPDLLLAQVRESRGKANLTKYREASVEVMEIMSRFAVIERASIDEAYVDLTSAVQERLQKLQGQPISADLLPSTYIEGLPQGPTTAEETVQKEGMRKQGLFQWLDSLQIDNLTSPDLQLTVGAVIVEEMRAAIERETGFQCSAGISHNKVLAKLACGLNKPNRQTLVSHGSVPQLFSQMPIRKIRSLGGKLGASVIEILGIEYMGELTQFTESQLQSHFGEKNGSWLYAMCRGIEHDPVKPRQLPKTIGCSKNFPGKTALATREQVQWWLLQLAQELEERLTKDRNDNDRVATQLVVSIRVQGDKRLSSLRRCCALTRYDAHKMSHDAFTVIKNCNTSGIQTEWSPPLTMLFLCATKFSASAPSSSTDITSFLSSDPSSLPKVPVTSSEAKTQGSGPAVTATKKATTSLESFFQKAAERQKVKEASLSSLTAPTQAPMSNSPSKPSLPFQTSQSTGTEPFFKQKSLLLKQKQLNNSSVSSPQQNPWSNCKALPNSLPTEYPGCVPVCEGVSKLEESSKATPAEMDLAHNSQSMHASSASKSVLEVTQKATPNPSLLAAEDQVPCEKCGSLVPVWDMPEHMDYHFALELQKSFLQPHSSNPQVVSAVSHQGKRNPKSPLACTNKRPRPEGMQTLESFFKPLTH

[1] = Colony survival, ola with or without RTX-161 (source data sheet Fig. 2 c; cell line not given); assay type: cell-based
Brca1-WT MEFs = assay: Clonogenic assay; assay type: cell-based, mouse; details: for pooled Average (normalized) / Normalized: MEF WT; for pooled Average (normalized): pooled average of 3 experiments; for Normalized: single experiments 1-3, 0 micro M = 100; for survival relative to 0 uM / survival relative to 0 uM, mean of the four experiments: WT; for survival relative to 0 uM: experiments 2023-04-07 and 2023-04-13; for survival relative to 0 uM, mean of the four experiments: last block without head (mean of 4)
Procedure: (§1) Cells were plated on six or twelve or twenty-four well plates. In six well plate, 1000 cells/ well of BRCA2 -/-, BRCA1 -/-, PALB2 mut and 500 cells/ well of wildtype pair was plated; In twelve well plate, 600 cells/ well of BRCA2 -/-, BRCA1 -/-, PALB2 mut and 400 cells/ well of wildtype pair was plated; In twenty-four well plate, 500 cells/ well of BRCA2 -/-, BRCA1 -/-, PALB2 mut and 300 cells/ well of wildtype pair was plated. […] The medium was replaced every 2 days until the colonies were ready for staining in 10–12 days. For staining: Medium was removed from plates, and cells were rinsed with PBS. Fixation was carried out with—Water: Ethanol: Acetic acid (5:4:1) for 30 min followed by staining of colonies with 0.5% crystal violet in Water: Ethanol (3:2) for 2 h at room temperature. The plates were rinsed with water and left for drying overnight at room temperature. Colonies were then counted and IC50 was calculated using results from 3 or more independent experiments. Response curves are shown as mean colony formation +/- S.E.M.

Brca1^CC/CC MEFs = assay: Clonogenic assay; assay type: cell-based, mouse; details: for pooled Average (normalized) / Normalized: MEF CC; for pooled Average (normalized): pooled average of 3 experiments; for Normalized: single experiments 1-3, 0 micro M = 100; for survival relative to 0 uM / survival relative to 0 uM, mean of the four experiments: cc; for survival relative to 0 uM: 150 cells/well, experiments 2023-04-07 and 2023-04-13; for survival relative to 0 uM, mean of the four experiments: last block without head (mean of 4)
Procedure: as §1

[2] = Metabolic stability in liver microsomes; assay type: in vitro ADME; details: read-out: t1/2 liver microsomes

For `CN(C(=O)Oc1c(N2CCN(CCO)C2=O)cc(C(F)(F)F)cc1C(F)(F)F)c1ccc(F)cc1` [RTx-161], the “% Full Extension” value (Pol Eta; Pol Eta) was 78.72%, the “% Inhibition Compared to Control” value (Pol Eta; Pol Eta) was -2.54% and the “% Relative Maximum Extension” value (Pol Eta; Pol Eta) was 102.54%. The “inhibition of primer extension” value (Pol Eta; selectivity panel, Pol named in Supplementary Fig. 1h) was “no inhibition”, the percent suvival ([1]; RTX-161 1 uM + ola 0.125 um) was 37.2624% and 27.7457% and 32.5843% and the percent suvival ([1]; RTX-161 1 uM + ola 0.25 um) was 11.4068% and 11.5607% and 13.4831%. For the same molecule, the percent suvival ([1]; RTX-161 1 uM, ola 0 um) was 93.9163% and 101.156% and 103.371%, the percent suvival ([1]; RTX-161 2 uM, ola 0 um) was 93.5361% and 104.624% and 106.742% and the “pooled Average (normalized)” value (Brca1-WT MEFs; RTX-161 2.5 micro M) was 86.6767. The Normalized (Brca1-WT MEFs; RTX-161 2.5 micro M) was 94.0299 and 78.7879 and 87.2314, the “pooled Average (normalized)” value (Brca1-WT MEFs; RTX-161 5 micro M) was 84.2267 and the Normalized (Brca1-WT MEFs; RTX-161 5 micro M) was 88.0597 and 81.8182 and 82.8237. The “pooled Average (normalized)” value (Brca1-WT MEFs; RTX-161 10 micro M) was 87.7867, the Normalized (Brca1-WT MEFs; RTX-161 10 micro M) was 100 and 72.7273 and 90.6469 and the “pooled Average (normalized)” value (Brca1-WT MEFs; RTX-161 20 micro M) was 78.36. For the same molecule, the Normalized (Brca1-WT MEFs; RTX-161 20 micro M) was 65.6716 and 68.1818 and 101.237, the “survival relative to 0 uM” value (Brca1-WT MEFs; 150 cells/well, RTx-161 1.25 uM) was 95.92% and 83.78% and the “survival relative to 0 uM” value (Brca1-WT MEFs; 150 cells/well, RTx-161 2.5 uM) was 108.16% and 89.19%. For the same molecule, the “survival relative to 0 uM” value (Brca1-WT MEFs; 150 cells/well, RTx-161 5 uM) was 104.08% and 81.08%, the “survival relative to 0 uM” value (Brca1-WT MEFs; 150 cells/well, RTx-161 10 uM) was 102.04% and 78.38% and the “survival relative to 0 uM” value (Brca1-WT MEFs; 150 cells/well, RTx-161 20 uM) was 87.76% and 86.49%. For the same molecule, the “survival relative to 0 uM” value (Brca1-WT MEFs; 300 cells/well, RTx-161 1.25 uM) was 109.62% and 92.19%, the “survival relative to 0 uM” value (Brca1-WT MEFs; 300 cells/well, RTx-161 2.5 uM) was 88.46% and 93.75% and the “survival relative to 0 uM” value (Brca1-WT MEFs; 300 cells/well, RTx-161 5 uM) was 92.31% and 106.25%. For the same molecule, the “survival relative to 0 uM” value (Brca1-WT MEFs; 300 cells/well, RTx-161 10 uM) was 96.15% and 100.00%, the “survival relative to 0 uM” value (Brca1-WT MEFs; 300 cells/well, RTx-161 20 uM) was 103.85% and 96.88% and the “survival relative to 0 uM, mean of the four experiments” value (“survival relative to 0 uM, mean” for short) (Brca1-WT MEFs; RTx-161 1.25 uM) was 95.38%. The “survival relative to 0 uM, mean” value (Brca1-WT MEFs; RTx-161 2.5 uM) was 94.89%, the “survival relative to 0 uM, mean” value (Brca1-WT MEFs; RTx-161 5 uM) was 95.93% and the “survival relative to 0 uM, mean” value (Brca1-WT MEFs; RTx-161 10 uM) was 94.14%. The “survival relative to 0 uM, mean” value (Brca1-WT MEFs; RTx-161 20 uM) was 93.74%, the “pooled Average (normalized)” value (Brca1^CC/CC MEFs; RTX-161 2.5 micro M) was 50.51 and the Normalized (Brca1^CC/CC MEFs; RTX-161 2.5 micro M) was 61.5322 and 50 and 40. The Normalized (Brca1^CC/CC MEFs; RTX-161 5 micro M) was 48.9756 and 28.3333 and 33.3333, the “pooled Average (normalized)” value (Brca1^CC/CC MEFs; RTX-161 10 micro M) was 33.4 and the “pooled Average (normalized)” value (Brca1^CC/CC MEFs; RTX-161 20 micro M) was 18.83. The “survival relative to 0 uM” value (Brca1^CC/CC MEFs; RTx-161 1.25 uM) was 84.85% and 90.38%, the “survival relative to 0 uM” value (Brca1^CC/CC MEFs; RTx-161 2.5 uM) was 72.73% and 53.85% and the “survival relative to 0 uM” value (Brca1^CC/CC MEFs; RTx-161 5 uM) was 60.61% and 50.00%. For the same molecule, the “survival relative to 0 uM” value (Brca1^CC/CC MEFs; RTx-161 10 uM) was 51.52% and 57.69%, the “survival relative to 0 uM” value (Brca1^CC/CC MEFs; RTx-161 20 uM) was 39.39% and 48.08% and the “survival relative to 0 uM, mean” value (Brca1^CC/CC MEFs; RTx-161 1.25 uM) was 86.23%. For the same molecule, the “survival relative to 0 uM, mean” value (Brca1^CC/CC MEFs; RTx-161 2.5 uM) was 67.71%, the “survival relative to 0 uM, mean” value (Brca1^CC/CC MEFs; RTx-161 5 uM) was 56.39% and the “survival relative to 0 uM, mean” value (Brca1^CC/CC MEFs; RTx-161 10 uM) was 54.03%. For the same molecule, the “survival relative to 0 uM, mean” value (Brca1^CC/CC MEFs; RTx-161 20 uM) was 47.47% and the “selective killing of Brca1^cc/cc MEFs” value (Brca1^CC/CC MEFs; versus Brca1-WT MEFs) was “selective killing”.

For `CN(C(=O)Oc1ccc(C(F)(F)F)cc1C(F)(F)F)c1ccc(F)cc1` [MC160385], the half-life [2] was 6.2 min.
